For the data set the following is noted: pH 7.5.

Regarding `O=C([O-])/C=C\C(=O)[O-].[Sr+2]` [Maleate, strontium maleate], the “solubility in buffered solution compared with pure water” value is “decreased solubility”.

Source of the values: patent US8183409B2, “High yield and rapid synthesis methods for producing metallo-organic salts” (Osteologix A/S, priority 2004, dated 2012).
